Assay results: ChEMBL document CHEMBL4834398, “Synthesis of Yakuchinone B-Inspired Inhibitors against Islet Amyloid Polypeptide Aggregation” (J Nat Prod, 2021)
Activity calls are given as the source filed them. The calls are words filed in the database; no cut-off is given here.

What was measured:
[1] = Protective activity against IAPP-induced toxicity in rat BRIN-B11 cells assessed as cell viability after 72 hrs by MTT assay; conditions: BRIN-BD11, 72 h
BRIN-BD11 [2] = experiment: Protective activity against IAPP-induced toxicity in rat […] cells assessed as cell viability at 0.02 to 0.63 uM after 72 hrs by MTT assay; format: functional, cell-based; conditions: dose 0.02-0.63 µM
BRIN-BD11 [3] = experiment: Protective activity against IAPP-induced toxicity in rat […] cells assessed as cell viability at 10 uM after 72 hrs by MTT assay; format: functional, cell-based
[4] = target: T1, Islet amyloid polypeptide (Homo sapiens, UniProt P10997); experiment: Inhibition of islet amyloid polypeptide (unknown origin) aggregation after 24 hrs by thioflavin T based fluorescence assay
T1 sequence (P10997 whole entry): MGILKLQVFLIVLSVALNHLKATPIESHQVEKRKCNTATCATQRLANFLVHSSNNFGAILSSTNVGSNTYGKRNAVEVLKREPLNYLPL

SMILES | EC50 [1] [nM] | Activity (BRIN-BD11 [2]) | Activity (BRIN-BD11 [3]) | IC50 [4] [nM]
CCCCC(=O)/C=C/c1cccc(O)c1O | 200 | Active | – | –
CCC(=O)/C=C/c1cccc(O)c1O | – | – | inactive | –
CC(=O)/C=C/c1cccc(O)c1O | – | – | inactive | –
CCCC(=O)/C=C/c1cccc(O)c1O | 100 | Active | – | –
CC(=O)/C=C/c1ccc(O)c(O)c1 | – | – | – | 3700
O=c1c(O)c(-c2ccc(O)cc2O)oc2cc(O)cc(O)c12 [MORIN] | 1000 | – | – | 7800
CC(=O)CCc1ccc(O)c(O)c1 | – | – | – | > 10000
